What was measured:
human P2X7 [1] = target: T1, human P2X7 (Homo sapiens (Human), UniProt Q99572); assay: P2X7 antagonism in human PBMCs (IL-1β release after LPS + Bz-ATP, ELISA); type: cell-based
human P2X7 [2] = target: T1, human P2X7; assay: Ca2+ flux (FLIPR) in 1321N1 cells expressing recombinant human P2X7; type: cell-based;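 also: cells loaded with Calcium-4 dye, preincubated with test compound for 30 min, fluorescence change read 180 s after agonist addition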
Protocol: (§1) P2X7 Antagonism in Recombinant Human P2X7 Cells or Recombinant Rat P2X7 Cells: (a) Ca^2+ Flux and (b) Radioligand Binding
(§2) 1321N1 cells expressing the recombinant human or rat P2X7 channel was cultured in HyQ DME/(HyClone/Dulbecco's Modified Eagle Medium) high glucose supplemented with 10% Fetal Bovine Serum (FBS) and appropriate selection marker. Cells were seeded at a density of 25000 cells/well (96-well clear bottom black walled plates) in 100 μl volume/well. On the day of the experiment, cell plates were washed with assay buffer, containing (in mM): 130 NaCl, 2 KCl, 1 CaCl2, 1 MgCl2, 10 HEPES, 5 glucose; pH 7.40 and 300 mOs. After the wash, cells were loaded with the Calcium-4 dye (Molecular Device) and incubated in the dark for 60 minutes. Test compounds were prepared at 250× the test concentration in neat DMSO. Intermediate 96-well compound plates were prepared by transferring 1.2 μL of the compound into 300 μL of assay buffer. A further 3× dilution occurred when transferring 50 μL/well of the compound plate to 100 μL/well in the cell plate. Cells were incubated with test compounds and dye for 30 minutes. […] The fluorescence change was measured 180 seconds after adding the agonist.

rat P2X7 [3] = target: T2, rat P2X7 (Rattus norvegicus (Rat), UniProt Q64663); assay: Ca2+ flux (FLIPR) in 1321N1 cells expressing recombinant rat P2X7; type: cell-based;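 also: Calcium-4 dye fluorescence change read 180 s after agonist addition, with cells preincubated 30 min with compound and dye in 96-well plates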
T2 sequence (Q64663 whole entry): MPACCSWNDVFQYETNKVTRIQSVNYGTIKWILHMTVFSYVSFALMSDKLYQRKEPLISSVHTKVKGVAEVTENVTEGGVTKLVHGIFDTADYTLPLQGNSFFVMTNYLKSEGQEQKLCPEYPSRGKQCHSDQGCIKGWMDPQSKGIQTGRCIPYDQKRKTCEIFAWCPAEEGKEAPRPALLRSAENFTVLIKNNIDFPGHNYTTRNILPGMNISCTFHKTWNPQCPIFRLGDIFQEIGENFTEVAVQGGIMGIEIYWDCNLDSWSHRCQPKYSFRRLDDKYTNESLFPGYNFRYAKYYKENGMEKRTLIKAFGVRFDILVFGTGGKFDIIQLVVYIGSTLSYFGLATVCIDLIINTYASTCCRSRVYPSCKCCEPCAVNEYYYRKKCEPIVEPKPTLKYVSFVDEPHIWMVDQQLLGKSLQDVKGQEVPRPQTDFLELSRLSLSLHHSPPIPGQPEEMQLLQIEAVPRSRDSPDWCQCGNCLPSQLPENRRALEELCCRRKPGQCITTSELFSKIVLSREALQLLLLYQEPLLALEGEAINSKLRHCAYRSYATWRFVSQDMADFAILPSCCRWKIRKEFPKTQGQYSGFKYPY
Protocol: as §1, §2

rat P2X7 [4] = target: T2, rat P2X7; assay: Radioligand binding ([3H]A-804598), rat P2X7-1321N1 cell membranes; details: rat P2X7-1321N1 membranes, tritiated A-804598
Protocol: (§3) human or rat P2X7-1321N1 cells were collected and frozen @−80° C. On the day of the experiment, cell membrane preparations were made according to standard published methods. […] The assay was terminated by filtration (GF/B filters pre-soaked with 0.3% PEI) and washed with washing buffer (Tris-HCl 50 mM). The IC50 generated in the binding assay was corrected for tracer concentration and affinity of the tracer to derive at the affinity (Ki) of the test compounds. […] For analysis, each concentration point is averaged from triplicate values and the averaged values are plotted on Graphpad Prism.

human P2X7 [5] = target: T1, human P2X7; assay: Radioligand binding ([3H]A-804598), human P2X7-1321N1 cell membranes
Protocol: as §3

[6] = human PBMCs, test compound 10 μM
[7] = 1321N1 cells, recombinant human P2X7, 250 μM BzATP
[8] = 1321N1 cells, recombinant rat P2X7, 250 μM BzATP
[9] = human P2X7-1321N1 membranes, tritiated A-804598
[10] = 10 μM test compound, human PBMCs, LPS + Bz-ATP
[11] = Ca2+ flux, 250 μM BzATP, human P2X7 1321N1 cells
[12] = Ca2+ flux, 250 μM BzATP, rat P2X7 1321N1 cells
[13] = [3H]A-804598, human P2X7-1321N1 membranes

T1 sequence (Q99572 whole entry): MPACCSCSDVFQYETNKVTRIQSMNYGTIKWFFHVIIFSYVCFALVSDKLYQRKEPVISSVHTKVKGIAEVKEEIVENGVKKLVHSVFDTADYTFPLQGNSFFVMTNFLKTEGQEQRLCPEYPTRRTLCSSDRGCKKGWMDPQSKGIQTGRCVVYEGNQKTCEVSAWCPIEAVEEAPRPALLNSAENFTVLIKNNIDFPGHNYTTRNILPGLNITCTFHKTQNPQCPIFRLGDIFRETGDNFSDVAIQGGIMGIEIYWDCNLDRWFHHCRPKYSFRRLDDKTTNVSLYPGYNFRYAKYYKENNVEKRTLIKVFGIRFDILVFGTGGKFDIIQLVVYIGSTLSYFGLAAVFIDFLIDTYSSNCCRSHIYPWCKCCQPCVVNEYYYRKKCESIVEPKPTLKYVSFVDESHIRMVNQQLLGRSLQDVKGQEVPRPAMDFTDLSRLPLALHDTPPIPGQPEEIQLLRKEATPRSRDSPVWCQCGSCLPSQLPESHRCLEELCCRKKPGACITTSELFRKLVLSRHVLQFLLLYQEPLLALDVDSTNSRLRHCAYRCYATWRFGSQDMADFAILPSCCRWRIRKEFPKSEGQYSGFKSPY

SMILES | PBMC 10 μM (% control) (human P2X7 [1]; [6]) | PBMC 10 μM (% control) (human P2X7 [1]; test compound 10 μM, LPS 30 ng/ml + 0.5 mM Bz-ATP) | IC50 (human P2X7 [2]; [7]) [nM] | IC50 (rat P2X7 [3]; [8]) [nM] | Ki (rat P2X7 [4]) [nM] | Ki (human P2X7 [5]; [9]) [nM] | PBMC 10 μM (% control) (human P2X7 [1]; [10]) | IC50 (human P2X7 [2]; [11]) [nM] | IC50 (rat P2X7 [3]; [12]) [nM] | Ki (human P2X7 [5]; [13]) [nM]
C[C@@H]1c2nnn(-c3ncccn3)c2CCN1C(=O)c1cccc(C(F)(F)F)c1F (single isomer, unassigned) [Example 271, (R*)-(2-fluoro-3-(trifluoromethyl)phenyl)(4-methyl-1-(pyrimidin-2-yl)-6,7-dihydro-1H-[1,2,3]triazolo[4,5-c]pyridin-5(4H)-yl)methanone] | 14.3 | −3.7 | 1.7 | 20 | 1.6 | – | – | – | – | –
Cc1c(C(=O)N2Cc3nnn(-c4ccn[nH]4)c3C[C@H]2C)cccc1C(F)(F)F (single isomer, unassigned) [Example 346, (R*)-(6-methyl-1-(1H-pyrazol-3-yl)-6,7-dihydro-1H-[1,2,3]triazolo[4,5-c]pyridin-5(4H)-yl)(2-methyl-3-(trifluoromethyl)phenyl)methanone] | −2.3 | – | 6.5 | 2.2 | – | 10 | – | – | – | –
C[C@H]1Cc2c(nnn2-c2ccn[nH]2)CN1C(=O)c1cccc(C(F)(F)F)c1F (single isomer, unassigned) [Example 349, (S*)-(2-fluoro-3-(trifluoromethyl)phenyl)(6-methyl-1-(1H-pyrazol-5-yl)-6,7-dihydro-1H-[1,2,3]triazolo[4,5-c]pyridin-5(4H)-yl)methanone] | 0.7 | – | 2.7 | 2.2 | – | 7.9 | – | – | – | –
Cc1cc(-n2nnc3c2CCN(C(=O)c2ccnc(C(F)(F)F)c2F)[C@@H]3C)ncc1F (single isomer, unassigned) [Example 368, (R*)-(3-fluoro-2-(trifluoromethyl)pyridin-4-yl)(1-(5-fluoro-4-methylpyridin-2-yl)-4-methyl-6,7-dihydro-1H-[1,2,3]triazolo[4,5-c]pyridin-5(4H)-yl)methanone] | −2.3 | – | 22.6 | 235 | – | 39.8 | – | – | – | –
C[C@@H]1c2nnn(-c3cccc(C(F)(F)F)n3)c2CCN1C(=O)c1cccc(C(F)(F)F)c1Cl (single isomer, unassigned) [Example 379, (R*)-(2-chloro-3-(trifluoromethyl)phenyl)(4-methyl-1-(6-(trifluoromethyl)pyridin-2-yl)-6,7-dihydro-1H-[1,2,3]triazolo[4,5-c]pyridin-5(4H)yl)methanone] | 3.8 | – | 113 | 47.4 | – | 200 | – | – | – | –
Cc1ccnc(-n2nnc3c2CCN(C(=O)c2cccc(Cl)c2Cl)[C@H]3C)n1 (single isomer, unassigned) [Example 392, (S*)-(2,3-dichlorophenyl)(4-methyl-1-(4-methylpyrimidin-2-yl)-6,7-dihydro-1H-[1,2,3]triazolo[4,5-c]pyridin-5(4H)-yl)methanone] | 14.4 | – | 3.6 | 47.3 | – | 4 | – | – | – | –
Cc1c(C(=O)N2Cc3nnn(-c4cc[nH]n4)c3CC2C)cccc1C(F)(F)F (stereo not shown) [Example 154, (6-methyl-1-(1H-pyrazol-3-yl)-6,7-dihydro-1H-[1,2,3]triazolo[4,5-c]pyridin-5(4H)-yl)(2-methyl-3-(trifluoromethyl)phenyl)methanone] | −0.6 | – | – | – | – | 7.9 | – | – | – | –
C[C@H]1Cc2c(nnn2-c2ncc(F)cn2)CN1C(=O)c1ccc(Cl)cc1F [Example 156, (S)-(4-chloro-2-fluorophenyl)(1-(5-fluoropyrimidin-2-yl)-6-methyl-6,7-dihydro-1H-[1,2,3]triazolo[4,5-c]pyridin-5(4H)-yl)methanone] | 1.8 | – | – | – | – | 6.3 | – | – | – | –
Cc1cc(-n2nnc3c2CCN(C(=O)c2ccnc(C(F)(F)F)c2F)C3C)ncc1F (stereo not shown) [Example 367, (3-fluoro-2-(trifluoromethyl)pyridin-4-yl)(1-(5-fluoro-4-methylpyridin-2-yl)-4-methyl-6,7-dihydro-1H-[1,2,3]triazolo[4,5-c]pyridin-5(4H)-yl)methanone] | 0.9 | – | 75.7 | 2150 | – | 115 | – | – | – | –
Cc1cc(-n2nnc3c2CCN(C(=O)c2ccnc(C(F)(F)F)c2Cl)C3C)ncc1F (stereo not shown) [Example 370, (3-chloro-2-(trifluoromethyl)pyridin-4-yl)(1-(5-fluoro-4-methylpyridin-2-yl)-4-methyl-6,7-dihydro-1H-[1,2,3]triazolo[4,5-c]pyridin-5(4H)-yl)methanone] | −2.2 | – | 59.7 | 256 | – | 63.1 | – | – | – | –
CC1c2nnn(-c3cccc(C(F)(F)F)n3)c2CCN1C(=O)c1cccc(C(F)(F)F)c1Cl (stereo not shown) [Example 378, (2-chloro-3-(trifluoromethyl)phenyl)(4-methyl-1-(6-(trifluoromethyl)pyridin-2-yl)-6,7-dihydro-1H-[1,2,3]triazolo[4,5-c]pyridin-5(4H)-yl)methanone] | −0.1 | – | 78.9 | 137 | – | 158 | – | – | – | –
CC1c2nnn(-c3ncc[nH]3)c2CCN1C(=O)c1cccc(C(F)(F)F)c1Cl (stereo not shown) [Example 393, (1-(1H-imidazol-2-yl)-4-methyl-6,7-dihydro-1H-[1,2,3]triazolo[4,5-c]pyridin-5(4H)-yl)(2-chloro-3-(trifluoromethyl)phenyl)methanone] | 8.5 | – | 51.2 | 11100 | – | 89.1 | – | – | – | –
C[C@H]1Cc2c(nnn2-c2ncc(F)cn2)CN1C(=O)c1cccc(OC(F)(F)F)c1F [Example 427, (S)-(2-fluoro-3-(trifluoromethoxy)phenyl)(1-(5-fluoropyrimidin-2-yl)-6-methyl-6,7-dihydro-1H-[1,2,3]triazolo[4,5-c]pyridin-5(4H)-yl)methanone] | – | – | – | – | – | – | −0.8 | 262 | 8280 | –
C[C@H]1Cc2c(nnn2-c2ncc(O)cn2)CN1C(=O)c1cccc(C(F)(F)F)c1F [Example 428, (S)-(2-fluoro-3-(trifluoromethyl)phenyl)(1-(5-hydroxypyrimidin-2-yl)-6-methyl-6,7-dihydro-1H-[1,2,3]triazolo[4,5-c]pyridin-5(4H)-yl)methanone] | – | – | – | – | – | – | 1.4 | 16.6 | 21.2 | –
CC1c2n[nH]c(-c3ccc(F)cn3)c2CCN1C(=O)c1cccc(C(F)(F)F)c1Cl (stereo not shown) [Example 430, (2-chloro-3-(trifluoromethyl)phenyl)(3-(5-fluoropyridin-2-yl)-7-methyl-4,5-dihydro-2H-pyrazolo[3,4-c]pyridin-6(7H)-yl)methanone] | – | – | – | – | – | – | −4.0 | 70.8 | 158 | 36.3
CC1c2n[nH]c(-c3ncccn3)c2CCN1C(=O)c1cccc(Cl)c1Cl (stereo not shown) [Example 431, (2,3-dichlorophenyl)(7-methyl-3-(pyrimidin-2-yl)-4,5-dihydro-2H-pyrazolo[3,4-c]pyridin-6(7H)-yl)methanone] | – | – | – | – | – | – | −6.4 | 6 | 320 | 12.3
CC1c2n[nH]c(-c3ccccn3)c2CCN1C(=O)c1cccc(C(F)(F)F)c1Cl (stereo not shown) [Example 432, (2-chloro-3-(trifluoromethyl)phenyl)(7-methyl-3-(pyridin-2-yl)-4,5-dihydro-2H-pyrazolo[3,4-c]pyridin-6(7H)-yl)methanone] | – | – | – | – | – | – | 0.3 | – | 32.8 | 15.8
CC1c2n[nH]c(-c3cnccn3)c2CCN1C(=O)c1cccc(Cl)c1Cl (stereo not shown) [Example 433, (2,3-dichlorophenyl)(7-methyl-3-(pyrazin-2-yl)-4,5-dihydro-2H-pyrazolo[3,4-c]pyridin-6(7H)-yl)methanone] | – | – | – | – | – | – | −3.6 | 18.9 | – | 15.8
CC1c2n[nH]c(-c3ccc(F)cc3)c2CCN1C(=O)c1cccc(C(F)(F)F)c1Cl (stereo not shown) [Example 434, (2-chloro-3-(trifluoromethyl)phenyl)(3-(4-fluorophenyl)-7-methyl-4,5-dihydro-2H-pyrazolo[3,4-c]pyridin-6(7H)-yl)methanone] | – | – | – | – | – | – | 3.1 | 43.5 | 432 | 47.9
CC1c2n[nH]c(-c3ccc(F)cc3)c2CCN1C(=O)c1cccc(Cl)c1Cl (stereo not shown) [Example 435, (2,3-dichlorophenyl)(3-(4-fluorophenyl)-7-methyl-4,5-dihydro-2H-pyrazolo[3,4-c]pyridin-6(7H)-yl)methanone] | – | – | – | – | – | – | −11.3 | 58.6 | – | 100
CC1c2n[nH]c(-c3ccnn3C)c2CCN1C(=O)c1cccc(Cl)c1Cl (stereo not shown) [Example 436, (2,3-dichlorophenyl)(7-methyl-3-(1-methyl-1H-pyrazol-5-yl)-4,5-dihydro-2H-pyrazolo[3,4-c]pyridin-6(7H)-yl)methanone] | – | – | – | – | – | – | −3.4 | 1130 | > 10000 | –
CC1c2n[nH]c(-c3ccnn3C)c2CCN1C(=O)c1cccc(C(F)(F)F)c1Cl (stereo not shown) [Example 437, (2-chloro-3-(trifluoromethyl)phenyl)(7-methyl-3-(1-methyl-1H-pyrazol-5-yl)-4,5-dihydro-2H-pyrazolo[3,4-c]pyridin-6(7H)-yl)methanone] | – | – | – | – | – | – | −11.7 | 240 | 14600 | 144
